Assay results published in ChEMBL document CHEMBL3621205, “High-Throughput Screening of Patient-Derived Cultures Reveals Potential for Precision Medicine in Glioblastoma” (ACS Med Chem Lett, 2015).
Activity calls are given as the source filed them. The calls are words filed in the database; no cut-off is given here.

What was measured:
Format in all cases: functional, cell-based
Glioma [1] = experiment: Cytotoxicity against human Glioma cells (HF3013) after 72 hrs by CelltiterGlo assay in presence of Bcl2-inhibitor ABT-263
Glioma [2] = experiment: Cytotoxicity against human Glioma cells (HF2476) after 72 hrs by CelltiterGlo assay in presence of Bcl2-inhibitor ABT-263
Glioma [3] = experiment: Decrease in phosphorylated S6 ribosomal protein level at Ser235 residue in human Glioma cells (HF2476) by western blot analysis
Glioma [4] = experiment: Decrease in phosphorylated S6 ribosomal protein level at Ser236 residue in human Glioma cells (HF2876) by western blot analysis
Glioma [5] = experiment: Cytotoxicity against human Glioma cells (HF2876) after 72 hrs by CelltiterGlo assay in presence of Bcl2-inhibitor ABT-263
Glioma [6] = experiment: Decrease in phosphorylated S6 ribosomal protein level at Ser236 residue in human Glioma cells (HF2476) by western blot analysis
Glioma [7] = experiment: Cytotoxicity against human Glioma cells (HF2303) after 72 hrs by CelltiterGlo assay in presence of Bcl2-inhibitor ABT-263
Glioma [8] = experiment: Decrease in phosphorylated S6 ribosomal protein level at Ser235 residue in human Glioma cells (HF2876) by western blot analysis
Glioma [9] = experiment: Induction of apoptosis in human Glioma cells (HF2476) assessed as increase in cleaved caspase-3 level by western blot analysis
Glioma [10] = experiment: Cytotoxicity against human Glioma cells (HF2876) after 72 hrs by CelltiterGlo assay
Glioma [11] = experiment: Cytotoxicity against human Glioma cells (HF2476) after 72 hrs by CelltiterGlo assay
Glioma [12] = experiment: Cytotoxicity against human Glioma cells (HF2476) after 72 hrs by CelltiterGlo assay in presence of mTOR inhibitor AZD-8055
Glioma [13] = experiment: Cytotoxicity against human Glioma cells (HF3013) after 72 hrs by CelltiterGlo assay in presence of mTOR inhibitor AZD-8055
Glioma [14] = experiment: Cytotoxicity against human Glioma cells (HF3013) after 72 hrs by CelltiterGlo assay
Glioma [15] = experiment: Cytotoxicity against human Glioma cells (HF2876) after 72 hrs by CelltiterGlo assay in presence of mTOR inhibitor AZD-8055
Glioma [16] = experiment: Induction of apoptosis in human Glioma cells (HF2876) assessed as increase in cleaved caspase-3 level by western blot analysis
Glioma [17] = experiment: Cytotoxicity against human Glioma cells (HF2303) after 72 hrs by CelltiterGlo assay
Glioma [18] = experiment: Cytotoxicity against human Glioma cells (HF2303) after 72 hrs by CelltiterGlo assay in presence of mTOR inhibitor AZD-8055
Glioma [19] = experiment: Cytotoxicity against human Glioma cells (HF2885) at 50 uM after 72 hrs by CelltiterGlo assay
Glioma [20] = experiment: Cytotoxicity against human Glioma cells (HF2790) at 50 uM after 72 hrs by CelltiterGlo assay
Glioma [21] = experiment: Cytotoxicity against human Glioma cells (HF3013) at 50 uM after 72 hrs by CelltiterGlo assay
Glioma [22] = experiment: Cytotoxicity against human Glioma cells (HF2476) at 50 uM after 72 hrs by CelltiterGlo assay
Glioma [23] = experiment: Cytotoxicity against human Glioma cells (HF2303) at 50 uM after 72 hrs by CelltiterGlo assay
Glioma [24] = experiment: Cytotoxicity against human Glioma cells (HF2876) at 50 uM after 72 hrs by CelltiterGlo assay
Glioma [25] = experiment: Cytotoxicity against human Glioma cells (HF2381) at 50 uM after 72 hrs by CelltiterGlo assay

For `COc1ccc(-c2ccc3c(N4CCOC[C@@H]4C)nc(N4CCOC[C@@H]4C)nc3n2)cc1CO`, the Activity (Glioma [1]) was “Active”, the Activity (Glioma [2]) was “Active” and the inhibition (Glioma [3]) was “Active”. For the same molecule, the inhibition (Glioma [4]) was “Active”, the Activity (Glioma [5]) was “inactive” and the inhibition (Glioma [6]) was “Active”. For the same molecule, the Activity (Glioma [7]) was “inactive” and the inhibition (Glioma [8]) was “Active”.

With `CC1(C)CCC(c2ccc(Cl)cc2)=C(CN2CCN(c3ccc(C(=O)NS(=O)(=O)c4ccc(N[C@H](CCN5CCOCC5)CSc5ccccc5)c(S(=O)(=O)C(F)(F)F)c4)cc3)CC2)C1` the Activity (Glioma [9]) was “Active”, the Activity (Glioma [10]) was “inactive” and the Activity (Glioma [11]) was “inactive”. For the same molecule, the Activity (Glioma [12]) was “Active”, the Activity (Glioma [13]) was “Active” and the Activity (Glioma [14]) was “inactive”. The Activity (Glioma [15]) was “Active”, the Activity (Glioma [16]) was “Active” and the Activity (Glioma [17]) was “inactive”. The Activity (Glioma [18]) was “Active”.

In the case of `Cn1nnc2c(C(N)=O)ncn2c1=O`, the Activity (Glioma [19]) is reported as “inactive”, the Activity (Glioma [20]) is reported as “inactive” and the Activity (Glioma [21]) is reported as “inactive”. The Activity (Glioma [22]) was “inactive”, the Activity (Glioma [23]) was “inactive” and the Activity (Glioma [24]) was “inactive”. The Activity (Glioma [25]) was “inactive”.
